Source: ChEMBL document CHEMBL1201861, “Genomics of Drug Sensitity in Cancer screening data, Wellcome Trust Sanger Institute”

Key:
COLO-792 = experiment: cells; assay type: functional, cell-based; details: Homo sapiens
Description: SANGER: Inhibition of human COLO-792 cell growth in a cell viability assay.

COR-L105 = experiment: cells; assay type: functional, cell-based; details: Homo sapiens
Description: SANGER: Inhibition of human COR-L105 cell growth in a cell viability assay.

Calu-3 = experiment: cells; assay type: functional, cell-based; details: Homo sapiens;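 also: growth inhibition of human Calu-3 cells, determined with a cell viability assay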
Description: SANGER: Inhibition of human Calu-3 cell growth in a cell viability assay.

D-542MG = experiment: cells; assay type: functional, cell-based; details: Homo sapiens
Description: SANGER: Inhibition of human D-542MG cell growth in a cell viability assay.

EB2 = experiment: cells; assay type: functional, cell-based; details: Homo sapiens;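 also: growth inhibition of EB2 cells, read out with a cell viability assay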
Description: SANGER: Inhibition of human EB2 cell growth in a cell viability assay.

ESS-1 = experiment: cells; assay type: functional, cell-based; details: Homo sapiens;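 also: growth inhibition of human ESS-1 cells, read out by a cell viability assay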
Description: SANGER: Inhibition of human ESS-1 cell growth in a cell viability assay.

GMS-10 = experiment: cells; assay type: functional, cell-based; details: Homo sapiens;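 also: growth inhibition of GMS-10 cells, read out as cell viability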
Description: SANGER: Inhibition of human GMS-10 cell growth in a cell viability assay.

HCC1599 = experiment: cells; assay type: functional, cell-based; details: Homo sapiens;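 also: growth inhibition of HCC1599 cells, read out in a cell viability assay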
Description: SANGER: Inhibition of human HCC1599 cell growth in a cell viability assay.

HCC1937 = experiment: cells; assay type: functional, cell-based; details: Homo sapiens;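 also: growth inhibition measured with a cell viability read-out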
Description: SANGER: Inhibition of human HCC1937 cell growth in a cell viability assay.

HN = experiment: cells; assay type: functional, cell-based; details: Homo sapiens
Description: SANGER: Inhibition of human HN cell growth in a cell viability assay.

HO-1-N-1 = experiment: cells; assay type: functional, cell-based; details: Homo sapiens;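 also: growth inhibition of human HO-1-N-1 cells, read out with a cell viability assay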
Description: SANGER: Inhibition of human HO-1-N-1 cell growth in a cell viability assay.

HOS = experiment: cells; assay type: functional, cell-based; details: Homo sapiens;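 also: growth inhibition of human HOS cells, read out with a cell viability assay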
Description: SANGER: Inhibition of human HOS cell growth in a cell viability assay.

HT-1376 = experiment: cells; assay type: functional, cell-based; details: Homo sapiens
Description: SANGER: Inhibition of human HT-1376 cell growth in a cell viability assay.

HTC-C3 = experiment: cells; assay type: functional, cell-based; details: Homo sapiens;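 also: inhibition of cell growth, read out with a cell viability assay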
Description: SANGER: Inhibition of human HTC-C3 cell growth in a cell viability assay.

KYSE-150 cell line = experiment: cells; assay type: functional, cell-based; details: Homo sapiens;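 also: growth inhibition of human KYSE-150 cells, read out with a cell viability assay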
Description: SANGER: Inhibition of human KYSE-150 cell growth in a cell viability assay.

LK-2 = experiment: cells; assay type: functional, cell-based; details: Homo sapiens;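 also: growth inhibition of LK-2 cells, read out with a viability assay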
Description: SANGER: Inhibition of human LK-2 cell growth in a cell viability assay.

LP-1 = experiment: cells; assay type: functional, cell-based; details: Homo sapiens;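 also: growth inhibition of human LP-1 cells, with the read-out taken from a cell viability assay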
Description: SANGER: Inhibition of human LP-1 cell growth in a cell viability assay.

MDA-MB-231 = experiment: cells; assay type: functional, cell-based; details: Homo sapiens
Description: SANGER: Inhibition of human MDA-MB-231 cell growth in a cell viability assay.

MDA-MB-415 = experiment: cells; assay type: functional, cell-based; details: Homo sapiens
MFE-280 = experiment: cells; assay type: functional, cell-based; details: Homo sapiens;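 also: growth inhibition of MFE-280 cells, determined with a cell viability readout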
Description: SANGER: Inhibition of human MFE-280 cell growth in a cell viability assay.

MONO-MAC-6 = experiment: cells; assay type: functional, cell-based; details: Homo sapiens;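 also: cell viability assay measuring growth inhibition of human MONO-MAC-6 cells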
Description: SANGER: Inhibition of human MONO-MAC-6 cell growth in a cell viability assay.

MRK-nu-1 = experiment: cells; assay type: functional, cell-based; details: Homo sapiens;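 also: cell viability assay measuring growth suppression of human MRK-nu-1 cells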
Description: SANGER: Inhibition of human MRK-nu-1 cell growth in a cell viability assay.

NB12 = experiment: cells; assay type: functional, cell-based; details: Homo sapiens;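 also: growth inhibition of human NB12 cells, read out by a cell viability assay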
Description: SANGER: Inhibition of human NB12 cell growth in a cell viability assay.

NCI-H1694 = experiment: cells; assay type: functional, cell-based; details: Homo sapiens;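 also: cell viability assay measuring inhibition of growth in human NCI-H1694 cells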
Description: SANGER: Inhibition of human NCI-H1694 cell growth in a cell viability assay.

NCI-H1963 = experiment: cells; assay type: functional, cell-based; details: Homo sapiens;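 also: cell growth inhibition of the human line, determined with a cell viability assay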
Description: SANGER: Inhibition of human NCI-H1963 cell growth in a cell viability assay.

NCI-H2030 = experiment: cells; assay type: functional, cell-based; details: Homo sapiens;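 also: growth inhibition of human NCI-H2030 cells, read out by a cell viability assay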
Description: SANGER: Inhibition of human NCI-H2030 cell growth in a cell viability assay.

NCI-H2170 = experiment: cells; assay type: functional, cell-based; details: Homo sapiens;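 also: cell viability assay measuring growth inhibition of human NCI-H2170 cancer cells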
Description: SANGER: Inhibition of human NCI-H2170 cell growth in a cell viability assay.

NCI-H2228 = experiment: cells; assay type: functional, cell-based; details: Homo sapiens;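 also: growth inhibition of human NCI-H2228 cells, read out by a cell viability assay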
Description: SANGER: Inhibition of human NCI-H2228 cell growth in a cell viability assay.

NCI-H345 = experiment: cells; assay type: functional, cell-based; details: Homo sapiens;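 also: growth inhibition of NCI-H345 cells measured with a cell viability assay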
Description: SANGER: Inhibition of human NCI-H345 cell growth in a cell viability assay.

NCI-H522 = experiment: cells; assay type: functional, cell-based; details: Homo sapiens;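 also: cell viability assay measuring growth inhibition of human NCI-H522 cells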
Description: SANGER: Inhibition of human NCI-H522 cell growth in a cell viability assay.

NCI-H596 = experiment: cells; assay type: functional, cell-based; details: Homo sapiens;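 also: growth inhibition of NCI-H596 cells, read out with a cell viability assay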
Description: SANGER: Inhibition of human NCI-H596 cell growth in a cell viability assay.

NCI-H889 = experiment: cells; assay type: functional, cell-based; details: Homo sapiens;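 also: cell growth inhibition of the cell line, read out with a viability assay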
Description: SANGER: Inhibition of human NCI-H889 cell growth in a cell viability assay.

NY = experiment: cells; assay type: functional, cell-based; details: Homo sapiens
Description: SANGER: Inhibition of human NY cell growth in a cell viability assay.

OVCAR-5 = experiment: cells; assay type: functional, cell-based; details: Homo sapiens;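 also: growth inhibition of human OVCAR-5 cells, read out with a cell viability assay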
Description: SANGER: Inhibition of human OVCAR-5 cell growth in a cell viability assay.

P31-FUJ = experiment: cells; assay type: functional, cell-based; details: Homo sapiens;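 also: growth inhibition of P31-FUJ cells, read out with a viability assay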
Description: SANGER: Inhibition of human P31-FUJ cell growth in a cell viability assay.

PF-382 = experiment: cells; assay type: functional, cell-based; details: Homo sapiens
Description: SANGER: Inhibition of human PF-382 cell growth in a cell viability assay.

RD = experiment: cells; assay type: functional, cell-based; details: Homo sapiens
Description: SANGER: Inhibition of human RD cell growth in a cell viability assay.

RERF-LC-MS = experiment: cells; assay type: functional, cell-based; details: Homo sapiens;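 also: growth inhibition of human RERF-LC-MS cells, read out by a cell viability assay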
Description: SANGER: Inhibition of human RERF-LC-MS cell growth in a cell viability assay.

RPMI-2650 = experiment: cells; assay type: functional, cell-based; details: Homo sapiens
Description: SANGER: Inhibition of human RPMI-2650 cell growth in a cell viability assay.

SK-HEP1 = experiment: cells; assay type: functional, cell-based, SK-HEP-1; details: Homo sapiens;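 also: cell viability readout used to quantify reduction in proliferation of human SK-HEP-1 cells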
Description: SANGER: Inhibition of human SK-HEP-1 cell growth in a cell viability assay.

SK-MEL-30 = experiment: cells; assay type: functional, cell-based; details: Homo sapiens;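 also: growth inhibition of SK-MEL-30 cells, determined with a cell viability assay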
Description: SANGER: Inhibition of human SK-MEL-30 cell growth in a cell viability assay.

SK-OV-3 = experiment: cells; assay type: functional, cell-based; details: Homo sapiens;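 also: growth inhibition of SK-OV-3 human cells, read out with a cell viability assay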
Description: SANGER: Inhibition of human SK-OV-3 cell growth in a cell viability assay.

SNU-449 = experiment: cells; assay type: functional, cell-based; details: Homo sapiens
Description: SANGER: Inhibition of human SNU-449 cell growth in a cell viability assay.

SW1990 = experiment: cells; assay type: functional, cell-based; details: Homo sapiens
Description: SANGER: Inhibition of human SW1990 cell growth in a cell viability assay.

SW626 = experiment: cells; assay type: functional, cell-based; details: Homo sapiens;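 also: growth inhibition of SW626 cells, measured with a cell viability assay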
Description: SANGER: Inhibition of human SW626 cell growth in a cell viability assay.

SW756 = experiment: cells; assay type: functional, cell-based; details: Homo sapiens;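 also: growth inhibition of human SW756 cells, read out with a cell viability assay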
Description: SANGER: Inhibition of human SW756 cell growth in a cell viability assay.

SiHa = experiment: cells; assay type: functional, cell-based; details: Homo sapiens;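 also: Viability-based readout of growth inhibition in SiHa cells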
Description: SANGER: Inhibition of human SiHa cell growth in a cell viability assay.

TALL-1 = experiment: cells; assay type: functional, cell-based; details: Homo sapiens;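 also: growth inhibition of cultured human TALL-1 cells, read out by a cell viability assay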
Description: SANGER: Inhibition of human TALL-1 cell growth in a cell viability assay.

23132-87 = experiment: cells; assay type: functional, cell-based; details: Homo sapiens
Description: SANGER: Inhibition of human 23132-87 cell growth in a cell viability assay.

647-V = experiment: cells; assay type: functional, cell-based; details: Homo sapiens;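 also: growth inhibition of 647-V cells, read out with a cell viability assay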
Description: SANGER: Inhibition of human 647-V cell growth in a cell viability assay.

769-P = experiment: cells; assay type: functional, cell-based; details: Homo sapiens
Description: SANGER: Inhibition of human 769-P cell growth in a cell viability assay.

786-0 = experiment: cells; assay type: functional, cell-based; details: Homo sapiens
Description: SANGER: Inhibition of human 786-0 cell growth in a cell viability assay.

8505C = experiment: cells; assay type: functional, cell-based; details: Homo sapiens
Description: SANGER: Inhibition of human 8505C cell growth in a cell viability assay.

A 172 = experiment: cells; assay type: functional, cell-based; details: Homo sapiens;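 also: growth inhibition of A172 cells, measured with a cell viability readout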
Description: SANGER: Inhibition of human A172 cell growth in a cell viability assay.

A-375 = experiment: cells; assay type: functional, cell-based; details: Homo sapiens;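 also: growth inhibition of A375 cells, read out with a cell viability assay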
Description: SANGER: Inhibition of human A375 cell growth in a cell viability assay.

BFTC-905 = experiment: cells; assay type: functional, cell-based; details: Homo sapiens
Description: SANGER: Inhibition of human BFTC-905 cell growth in a cell viability assay.

BHY = experiment: cells; assay type: functional, cell-based; details: Homo sapiens;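 also: cell growth inhibition read out by a viability assay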
Description: SANGER: Inhibition of human BHY cell growth in a cell viability assay.

BL-41 = experiment: cells; assay type: functional, cell-based; details: Homo sapiens;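 also: growth inhibition of human BL-41 cells, read out with a cell viability assay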
Description: SANGER: Inhibition of human BL-41 cell growth in a cell viability assay.

BL-70 = experiment: SANGER: Inhibition of human BL-70 cell growth in a cell viability assay.; assay type: functional, cell-based
CAL-12T = experiment: cells; assay type: functional, cell-based, Homo sapiens; details: Homo sapiens, CAL-12T;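 also: growth inhibition of human CAL-12T cells, read out with a cell viability assay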
Description: SANGER: Inhibition of human CAL-12T cell growth in a cell viability assay.

CAL-27 = experiment: cells; assay type: functional, cell-based; details: Homo sapiens;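 also: Viability-based readout, IC50 reflecting inhibition of CAL-27 cell growth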
Description: SANGER: Inhibition of human CAL-27 cell growth in a cell viability assay.

CAL-54 = experiment: cells; assay type: functional, cell-based; details: Homo sapiens;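 also: growth inhibition of CAL-54 cells, read out by a viability measurement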
Description: SANGER: Inhibition of human CAL-54 cell growth in a cell viability assay.

UO-31 = experiment: cells; assay type: functional, cell-based; details: Homo sapiens
Description: SANGER: Inhibition of human U031 cell growth in a cell viability assay.

VMRC-RCZ = experiment: cells; assay type: functional, cell-based; details: Homo sapiens
Description: SANGER: Inhibition of human VMRC-RCZ cell growth in a cell viability assay.

YT = experiment: cells; assay type: functional, cell-based; details: Homo sapiens
Description: SANGER: Inhibition of human YT cell growth in a cell viability assay.

SMILES: O=c1[nH]c2ccccc2n1C1CCN(Cc2ccc(-c3nc4cc5[nH]cnc5cc4nc3-c3ccccc3)cc2)CC1
- IC50 (COLO-792): > 2560 nM
- IC50 (COR-L105): > 2560 nM
- IC50 (Calu-3): > 2560 nM
- IC50 (D-542MG): > 2560 nM
- IC50 (EB2): > 2560 nM
- IC50 (ESS-1): > 2560 nM
- IC50 (GMS-10): > 2560 nM
- IC50 (HCC1599): > 2560 nM
- IC50 (HCC1937): > 2560 nM
- IC50 (HN): > 2560 nM
- IC50 (HO-1-N-1): > 2560 nM
- IC50 (HOS): > 2560 nM
- IC50 (HT-1376): > 2560 nM
- IC50 (HTC-C3): > 2560 nM
- IC50 (KYSE-150 cell line): > 2560 nM
- IC50 (LK-2): > 2560 nM
- IC50 (LP-1): > 2560 nM
- IC50 (MDA-MB-231): > 2560 nM
- IC50 (MDA-MB-415): 1730 nM
- IC50 (MFE-280): > 2560 nM
- IC50 (MONO-MAC-6): > 2560 nM
- IC50 (MRK-nu-1): > 2560 nM
- IC50 (NB12): > 2560 nM
- IC50 (NCI-H1694): > 2560 nM
- IC50 (NCI-H1963): > 2560 nM
- IC50 (NCI-H2030): 1940 nM
- IC50 (NCI-H2170): > 2560 nM
- IC50 (NCI-H2228): 2290 nM
- IC50 (NCI-H345): > 2560 nM
- IC50 (NCI-H522): > 2560 nM
- IC50 (NCI-H596): > 2560 nM
- IC50 (NCI-H889): > 2560 nM
- IC50 (NY): > 2560 nM
- IC50 (OVCAR-5): > 2560 nM
- IC50 (P31-FUJ): > 2560 nM
- IC50 (PF-382): > 2560 nM
- IC50 (RD): > 2560 nM
- IC50 (RERF-LC-MS): > 2560 nM
- IC50 (RPMI-2650): > 2560 nM
- IC50 (SK-HEP1): > 2560 nM
- IC50 (SK-MEL-30): > 2560 nM
- IC50 (SK-OV-3): > 2560 nM
- IC50 (SNU-449): > 2560 nM
- IC50 (SW1990): > 2560 nM
- IC50 (SW626): > 2560 nM
- IC50 (SW756): > 2560 nM
- IC50 (SiHa): > 2560 nM
- IC50 (TALL-1): > 2560 nM
- IC50 (23132-87): 759 nM
- IC50 (647-V): > 2560 nM
- IC50 (769-P): > 2560 nM
- IC50 (786-0): 1100 nM
- IC50 (8505C): > 2560 nM
- IC50 (A 172): > 2560 nM
- IC50 (A-375): > 2560 nM
- IC50 (BFTC-905): > 2560 nM
- IC50 (BHY): > 2560 nM
- IC50 (BL-41): > 2560 nM
- IC50 (BL-70): > 2560 nM
- IC50 (CAL-12T): > 2560 nM
- IC50 (CAL-27): > 2560 nM
- IC50 (CAL-54): > 2560 nM
- IC50 (UO-31): > 2560 nM
- IC50 (VMRC-RCZ): > 2560 nM
- IC50 (YT): > 2560 nM

SMILES: Fc1cc(-c2cc[nH]/c(=N/c3ccc(-n4cnc(N5CCOCC5)n4)cc3)n2)cc(N2CCOCC2)c1
- IC50 (COLO-792): > 5120 nM
- IC50 (COR-L105): 235 nM
- IC50 (Calu-3): 824 nM
- IC50 (D-542MG): 357 nM
- IC50 (EB2): 581 nM
- IC50 (ESS-1): 659 nM
- IC50 (GMS-10): 2840 nM
- IC50 (HCC1599): 466 nM
- IC50 (HCC1937): 1230 nM
- IC50 (HN): 4240 nM
- IC50 (HO-1-N-1): 617 nM
- IC50 (HOS): 613 nM
- IC50 (HT-1376): 1460 nM
- IC50 (HTC-C3): 1240 nM
- IC50 (KYSE-150 cell line): 664 nM
- IC50 (LK-2): 849 nM
- IC50 (LP-1): 483 nM
- IC50 (MDA-MB-231): 967 nM
- IC50 (MDA-MB-415): 1330 nM
- IC50 (MFE-280): > 5120 nM
- IC50 (MONO-MAC-6): 544 nM
- IC50 (MRK-nu-1): 545 nM
- IC50 (NB12): 383 nM
- IC50 (NCI-H1694): 1500 nM
- IC50 (NCI-H1963): 873 nM
- IC50 (NCI-H2030): 169 nM
- IC50 (NCI-H2170): 745 nM
- IC50 (NCI-H2228): 527 nM
- IC50 (NCI-H345): 4540 nM
- IC50 (NCI-H522): 887 nM
- IC50 (NCI-H596): 814 nM
- IC50 (NCI-H889): 2260 nM
- IC50 (NY): 623 nM
- IC50 (OVCAR-5): 181 nM
- IC50 (P31-FUJ): 4640 nM
- IC50 (PF-382): 476 nM
- IC50 (RD): 1300 nM
- IC50 (RERF-LC-MS): 874 nM
- IC50 (RPMI-2650): 224 nM
- IC50 (SK-HEP1): 410 nM
- IC50 (SK-MEL-30): 588 nM
- IC50 (SK-OV-3): 2070 nM
- IC50 (SNU-449): 522 nM
- IC50 (SW1990): 1100 nM
- IC50 (SW626): 1090 nM
- IC50 (SW756): 2060 nM
- IC50 (SiHa): 1110 nM
- IC50 (TALL-1): > 5120 nM
- IC50 (23132-87): 623 nM
- IC50 (647-V): 401 nM
- IC50 (769-P): 535 nM
- IC50 (786-0): 228 nM
- IC50 (8505C): 1260 nM
- IC50 (A 172): 669 nM
- IC50 (A-375): 623 nM
- IC50 (BFTC-905): 141 nM
- IC50 (BHY): 510 nM
- IC50 (BL-41): 307 nM
- IC50 (BL-70): 252 nM
- IC50 (CAL-12T): 2110 nM
- IC50 (CAL-27): 66 nM
- IC50 (CAL-54): 1880 nM
- IC50 (UO-31): 519 nM
- IC50 (VMRC-RCZ): 999 nM
- IC50 (YT): 204 nM
